# pIC50: −log10 of the molar value.
# Assays:
# [1] = target: Vascular endothelial growth factor receptor 1 (Homo sapiens, UniProt P17948); assay: Inhibition of VEGFR1 assessed as inhibition of phosphorylation in presence of 2 uM ATP by HTRF assay; format: functional
# Homo sapiens [2] = species: Homo sapiens; assay: Inhibition of PKA at 10 uM; parameters: scale not given: the % may be the effect or the level left
# [3] = target: Receptor tyrosine-protein kinase erbB-2 (Homo sapiens) (UniProt P04626); assay: Inhibition of ErbB2/Her2 at 10 uM; parameters: scale not given: the % may be the effect or the level left
# Sequence of Receptor tyrosine-protein kinase erbB-2 (Homo sapiens) (P04626 whole entry): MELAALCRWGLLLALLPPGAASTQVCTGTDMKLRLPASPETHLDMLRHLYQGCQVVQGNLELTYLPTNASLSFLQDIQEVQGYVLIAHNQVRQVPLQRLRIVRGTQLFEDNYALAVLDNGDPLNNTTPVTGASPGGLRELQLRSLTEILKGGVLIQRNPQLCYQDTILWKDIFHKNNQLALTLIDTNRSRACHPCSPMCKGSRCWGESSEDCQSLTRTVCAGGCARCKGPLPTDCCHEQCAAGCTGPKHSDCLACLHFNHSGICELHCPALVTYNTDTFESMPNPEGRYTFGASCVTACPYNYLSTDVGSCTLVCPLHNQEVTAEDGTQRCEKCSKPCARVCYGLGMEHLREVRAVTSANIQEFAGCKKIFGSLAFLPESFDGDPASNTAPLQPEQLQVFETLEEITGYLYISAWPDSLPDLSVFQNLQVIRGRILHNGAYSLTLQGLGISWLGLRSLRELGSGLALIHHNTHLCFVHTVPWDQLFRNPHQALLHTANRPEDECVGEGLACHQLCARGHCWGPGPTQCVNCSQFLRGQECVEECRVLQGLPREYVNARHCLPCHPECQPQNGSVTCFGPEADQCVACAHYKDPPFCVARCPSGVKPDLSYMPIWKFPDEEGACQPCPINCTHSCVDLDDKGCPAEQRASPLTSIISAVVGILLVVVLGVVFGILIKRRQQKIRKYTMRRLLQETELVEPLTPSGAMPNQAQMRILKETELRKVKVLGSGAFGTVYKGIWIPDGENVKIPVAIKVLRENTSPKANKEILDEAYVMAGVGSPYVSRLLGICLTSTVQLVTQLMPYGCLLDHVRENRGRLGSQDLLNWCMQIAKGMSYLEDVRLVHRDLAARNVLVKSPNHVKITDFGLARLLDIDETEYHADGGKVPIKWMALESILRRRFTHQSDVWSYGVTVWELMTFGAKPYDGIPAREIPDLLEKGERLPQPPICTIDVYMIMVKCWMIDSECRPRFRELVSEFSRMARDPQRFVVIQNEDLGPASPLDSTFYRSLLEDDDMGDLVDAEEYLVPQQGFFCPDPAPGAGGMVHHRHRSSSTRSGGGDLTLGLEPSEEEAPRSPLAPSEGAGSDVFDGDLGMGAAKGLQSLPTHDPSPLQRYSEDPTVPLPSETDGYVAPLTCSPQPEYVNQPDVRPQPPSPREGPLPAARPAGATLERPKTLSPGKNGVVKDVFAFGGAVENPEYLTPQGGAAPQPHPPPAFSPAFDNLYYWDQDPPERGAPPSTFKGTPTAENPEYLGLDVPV
# [4] = target: Vascular endothelial growth factor receptor 3 (Homo sapiens) (UniProt P35916); assay: Inhibition of Flt4 at 10 uM; parameters: scale not given: the % may be the effect or the level left
# [5] = target: T1, Vascular endothelial growth factor receptor 2 (Homo sapiens, UniProt P35968); assay: Inhibition of VEGFR2 assessed as inhibition of phosphorylation in human 293 cells by cell-based ELISA; format: functional, HEK293
# Homo sapiens [6] = species: Homo sapiens; assay: Inhibition of bcr-Abl at 10 uM; parameters: scale not given: the % may be the effect or the level left
# [7] = target: T1, Vascular endothelial growth factor receptor 2; assay: Inhibition of VEGFR2 assessed as inhibition of phosphorylation in presence of 2 uM ATP by HTRF assay; format: functional
# [8] = target: RAF proto-oncogene serine/threonine-protein kinase (Homo sapiens) (UniProt P04049); assay: Inhibition of Raf1 at 10 uM; parameters: scale not given: the % may be the effect or the level left
# [9] = target: Insulin-like growth factor 1 receptor (Homo sapiens) (UniProt P08069); assay: Inhibition of IGF1R at 10 uM; parameters: scale not given: the % may be the effect or the level left
# Sequence of Insulin-like growth factor 1 receptor (Homo sapiens) (P08069 31-736 limits assumed): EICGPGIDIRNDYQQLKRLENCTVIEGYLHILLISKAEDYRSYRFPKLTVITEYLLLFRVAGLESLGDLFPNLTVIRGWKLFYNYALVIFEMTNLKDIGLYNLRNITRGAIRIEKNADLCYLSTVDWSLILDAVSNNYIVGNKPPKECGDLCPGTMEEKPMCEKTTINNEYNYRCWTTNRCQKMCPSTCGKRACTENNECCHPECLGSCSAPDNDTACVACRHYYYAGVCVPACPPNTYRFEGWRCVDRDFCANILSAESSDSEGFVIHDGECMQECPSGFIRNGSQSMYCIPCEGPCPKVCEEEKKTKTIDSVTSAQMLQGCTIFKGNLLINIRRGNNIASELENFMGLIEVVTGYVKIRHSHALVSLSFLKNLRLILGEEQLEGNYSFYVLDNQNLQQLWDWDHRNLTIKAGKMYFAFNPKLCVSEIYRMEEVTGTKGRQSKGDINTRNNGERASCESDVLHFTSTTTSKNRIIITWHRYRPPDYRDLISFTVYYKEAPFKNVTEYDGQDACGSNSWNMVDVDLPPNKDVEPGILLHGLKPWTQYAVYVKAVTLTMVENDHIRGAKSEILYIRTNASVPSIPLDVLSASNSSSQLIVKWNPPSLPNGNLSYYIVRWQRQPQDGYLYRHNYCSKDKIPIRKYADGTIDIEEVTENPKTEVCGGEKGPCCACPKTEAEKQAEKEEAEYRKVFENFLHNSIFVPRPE
# Sequence of Insulin-like growth factor 1 receptor (Homo sapiens) (P08069 741-1367 limits assumed): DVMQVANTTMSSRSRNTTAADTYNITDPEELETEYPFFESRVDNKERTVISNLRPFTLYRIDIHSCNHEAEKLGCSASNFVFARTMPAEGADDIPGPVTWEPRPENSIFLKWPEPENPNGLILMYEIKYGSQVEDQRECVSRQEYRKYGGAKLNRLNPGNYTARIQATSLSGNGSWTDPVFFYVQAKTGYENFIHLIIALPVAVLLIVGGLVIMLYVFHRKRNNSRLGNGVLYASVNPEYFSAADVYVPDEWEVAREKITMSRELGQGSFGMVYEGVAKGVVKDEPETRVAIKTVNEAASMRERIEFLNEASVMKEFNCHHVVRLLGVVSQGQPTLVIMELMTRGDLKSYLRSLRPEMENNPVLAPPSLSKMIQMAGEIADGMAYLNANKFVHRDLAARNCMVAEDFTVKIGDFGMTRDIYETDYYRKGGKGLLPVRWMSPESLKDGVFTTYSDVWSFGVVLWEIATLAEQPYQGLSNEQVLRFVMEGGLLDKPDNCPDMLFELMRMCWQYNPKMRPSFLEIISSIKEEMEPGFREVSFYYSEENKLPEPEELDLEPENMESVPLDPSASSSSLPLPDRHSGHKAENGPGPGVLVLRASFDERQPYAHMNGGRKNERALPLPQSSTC
# [10] = target: RAC-alpha serine/threonine-protein kinase (Homo sapiens) (UniProt P31749); assay: Inhibition of PKB/Akt at 10 uM; parameters: scale not given: the % may be the effect or the level left
# Sequence of RAC-alpha serine/threonine-protein kinase (Homo sapiens) (P31749 whole entry): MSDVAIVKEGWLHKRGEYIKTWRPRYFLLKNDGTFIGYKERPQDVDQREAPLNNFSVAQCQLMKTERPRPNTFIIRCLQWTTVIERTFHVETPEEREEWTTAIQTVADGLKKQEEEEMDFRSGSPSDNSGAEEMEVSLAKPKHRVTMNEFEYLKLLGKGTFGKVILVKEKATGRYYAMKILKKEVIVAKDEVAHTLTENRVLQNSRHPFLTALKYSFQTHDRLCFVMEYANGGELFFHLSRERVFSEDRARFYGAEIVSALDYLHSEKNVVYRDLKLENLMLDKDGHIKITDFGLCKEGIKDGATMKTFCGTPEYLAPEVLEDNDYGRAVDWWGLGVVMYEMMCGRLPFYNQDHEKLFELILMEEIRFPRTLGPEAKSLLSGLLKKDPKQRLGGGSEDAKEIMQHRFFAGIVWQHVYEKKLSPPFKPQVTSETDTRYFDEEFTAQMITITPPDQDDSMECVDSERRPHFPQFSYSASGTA
# [11] = target: Hepatocyte growth factor receptor (Homo sapiens) (UniProt P08581); assay: Inhibition of cMet at 10 uM; parameters: scale not given: the % may be the effect or the level left
# Homo sapiens [12] = species: Homo sapiens; assay: Inhibition of Cdk1 at 10 uM; parameters: scale not given: the % may be the effect or the level left
# [13] = target: Cyclin-dependent kinase 2 (Homo sapiens) (UniProt P24941); assay: Inhibition of Cdk2 at 10 uM; parameters: scale not given: the % may be the effect or the level left
# [14] = target: Epidermal growth factor receptor (Homo sapiens) (UniProt P00533); assay: Inhibition of ErbB1 at 10 uM; parameters: scale not given: the % may be the effect or the level left
# Sequence of Epidermal growth factor receptor (Homo sapiens) (P00533 whole entry): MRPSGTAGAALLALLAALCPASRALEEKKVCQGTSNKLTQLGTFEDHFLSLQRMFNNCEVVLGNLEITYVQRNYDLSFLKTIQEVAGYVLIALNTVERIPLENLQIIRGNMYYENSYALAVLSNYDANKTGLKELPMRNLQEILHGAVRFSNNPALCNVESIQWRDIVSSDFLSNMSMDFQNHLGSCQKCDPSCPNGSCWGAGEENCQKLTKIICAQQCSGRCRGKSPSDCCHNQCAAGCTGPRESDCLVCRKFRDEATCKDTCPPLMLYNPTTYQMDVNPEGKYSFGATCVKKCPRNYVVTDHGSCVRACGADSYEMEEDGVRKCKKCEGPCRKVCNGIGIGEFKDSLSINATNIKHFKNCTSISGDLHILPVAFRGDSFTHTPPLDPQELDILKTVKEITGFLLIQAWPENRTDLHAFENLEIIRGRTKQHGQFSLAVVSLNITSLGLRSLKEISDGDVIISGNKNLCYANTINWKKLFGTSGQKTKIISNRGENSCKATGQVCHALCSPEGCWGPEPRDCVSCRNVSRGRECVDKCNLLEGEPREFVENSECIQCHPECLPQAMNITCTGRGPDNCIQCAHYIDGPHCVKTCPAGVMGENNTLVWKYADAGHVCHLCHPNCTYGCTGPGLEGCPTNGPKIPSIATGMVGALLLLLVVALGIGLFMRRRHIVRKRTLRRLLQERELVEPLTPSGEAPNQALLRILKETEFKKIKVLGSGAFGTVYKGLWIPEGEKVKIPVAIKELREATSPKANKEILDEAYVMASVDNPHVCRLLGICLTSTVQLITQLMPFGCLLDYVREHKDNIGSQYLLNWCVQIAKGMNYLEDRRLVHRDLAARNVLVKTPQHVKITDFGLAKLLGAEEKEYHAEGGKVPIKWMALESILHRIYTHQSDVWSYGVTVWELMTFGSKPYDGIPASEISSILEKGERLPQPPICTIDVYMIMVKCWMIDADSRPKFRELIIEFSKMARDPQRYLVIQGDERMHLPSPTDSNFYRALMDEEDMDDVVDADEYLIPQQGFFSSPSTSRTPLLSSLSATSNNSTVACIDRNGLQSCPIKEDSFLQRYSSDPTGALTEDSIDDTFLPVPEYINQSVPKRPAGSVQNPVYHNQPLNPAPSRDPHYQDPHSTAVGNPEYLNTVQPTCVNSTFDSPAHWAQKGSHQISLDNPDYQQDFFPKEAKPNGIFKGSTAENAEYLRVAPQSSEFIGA
# [15] = target: Glycogen synthase kinase-3 beta (Homo sapiens) (UniProt P49841); assay: Inhibition of GSK3-beta at 10 uM; parameters: scale not given: the % may be the effect or the level left
# Sequence of Glycogen synthase kinase-3 beta (Homo sapiens) (P49841 whole entry, looked up): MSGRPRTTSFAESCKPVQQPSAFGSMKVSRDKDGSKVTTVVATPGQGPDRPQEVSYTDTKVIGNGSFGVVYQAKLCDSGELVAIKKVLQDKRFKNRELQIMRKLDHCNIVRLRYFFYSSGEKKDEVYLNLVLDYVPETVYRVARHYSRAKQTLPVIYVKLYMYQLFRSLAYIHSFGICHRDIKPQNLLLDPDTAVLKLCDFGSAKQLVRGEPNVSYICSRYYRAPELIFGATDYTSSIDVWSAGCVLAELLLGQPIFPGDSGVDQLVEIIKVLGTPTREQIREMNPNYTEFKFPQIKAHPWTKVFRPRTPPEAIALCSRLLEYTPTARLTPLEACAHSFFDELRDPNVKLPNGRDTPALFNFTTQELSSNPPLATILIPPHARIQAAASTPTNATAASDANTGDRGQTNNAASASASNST
# Homo sapiens [16] = species: Homo sapiens; assay: Inhibition of InR at 10 uM; parameters: scale not given: the % may be the effect or the level left
# [17] = target: Receptor-type tyrosine-protein kinase FLT3 (Homo sapiens) (UniProt P36888); assay: Inhibition of Flt3 at 10 uM; parameters: scale not given: the % may be the effect or the level left
# [18] = target: Fibroblast growth factor receptor 1 (Homo sapiens) (UniProt P11362); assay: Inhibition of FGFR1 at 10 uM; parameters: scale not given: the % may be the effect or the level left
Structure (SMILES),pIC50 [1],Activity (Homo sapiens [2]),Activity [3],Activity [4],pIC50 [5],Activity (Homo sapiens [6]),pIC50 [7],Activity [8],Activity [9],Activity [10],Activity [11],Activity (Homo sapiens [12]),Activity [13],Activity [14],Activity [15],Activity (Homo sapiens [16]),Activity [17],Activity [18]
O=C(Nc1ccc(Cl)cc1)c1nnnn1CCc1ccncc1,6.05,> 30%,> 30%,> 30%,5.69,> 30%,6.19,> 30%,> 30%,> 30%,> 30%,> 30%,> 30%,< 30%,> 30%,> 30%,> 30%,> 30%
O=C(Nc1ccc(Cl)cc1)c1ccnn1CCc1cnoc1,< 5.00,> 30%,> 30%,> 30%,< 5.00,> 30%,< 5.00,> 30%,> 30%,> 30%,> 30%,> 30%,> 30%,< 30%,> 30%,> 30%,> 30%,> 30%
O=C(Nc1cccc(OC(F)(F)F)c1)c1ccnn1CCc1ccncc1,6.35,> 30%,> 30%,> 30%,6.55,> 30%,6.43,> 30%,> 30%,> 30%,> 30%,> 30%,> 30%,< 30%,> 30%,> 30%,> 30%,> 30%
O=C(Nc1ccc(Cl)c(C(F)(F)F)c1)c1ccnn1CCc1ccncc1,5.63,> 30%,> 30%,> 30%,6.35,> 30%,6.12,> 30%,> 30%,> 30%,> 30%,> 30%,> 30%,< 30%,> 30%,> 30%,> 30%,> 30%
O=C(Nc1ccc(Cl)cc1)c1nccn1CCc1ccncc1,6.03,> 30%,> 30%,> 30%,5.88,> 30%,6.42,> 30%,> 30%,> 30%,> 30%,> 30%,> 30%,< 30%,> 30%,> 30%,> 30%,> 30%
O=C(Nc1ccc(C(F)(F)F)c(Cl)c1)c1nccn1CCc1ccncc1,5.34,> 30%,> 30%,> 30%,5.31,> 30%,5.88,> 30%,> 30%,> 30%,> 30%,> 30%,> 30%,< 30%,> 30%,> 30%,> 30%,> 30%
O=C(Nc1ccc2cn[nH]c2c1)c1ccnn1CCc1ccncc1,< 5.00,> 30%,> 30%,> 30%,< 5.00,> 30%,< 5.00,> 30%,> 30%,> 30%,> 30%,> 30%,> 30%,< 30%,> 30%,> 30%,> 30%,> 30%

# Now from value to compound:
pIC50 [1],Activity (Homo sapiens [2]),Activity [3],Activity [4],pIC50 [5],Activity (Homo sapiens [6]),pIC50 [7],Activity [8],Activity [9],Activity [10],Activity [11],Activity (Homo sapiens [12]),Activity [13],Activity [14],Activity [15],Activity (Homo sapiens [16]),Activity [17],Activity [18],Structure (SMILES)
< 5.00,> 30%,> 30%,> 30%,< 5.00,> 30%,< 5.00,> 30%,> 30%,> 30%,> 30%,> 30%,> 30%,< 30%,> 30%,> 30%,> 30%,> 30%,O=C(Nc1ccc(Cl)cc1)c1ccnn1CCc1c[nH]cn1
< 5.00,> 30%,> 30%,> 30%,< 5.00,> 30%,< 5.00,> 30%,> 30%,> 30%,> 30%,> 30%,> 30%,< 30%,> 30%,> 30%,> 30%,> 30%,O=C(Nc1ccc(C(F)(F)F)c(Cl)c1)c1nnnn1CCc1ccncc1
6.10,> 30%,> 30%,> 30%,5.78,> 30%,6.33,> 30%,> 30%,> 30%,> 30%,> 30%,> 30%,< 30%,> 30%,> 30%,> 30%,> 30%,O=C(Nc1ccc(C(F)(F)F)cc1)c1nccn1CCc1ccncc1
< 5.00,> 30%,> 30%,> 30%,< 5.00,> 30%,< 5.00,> 30%,> 30%,> 30%,> 30%,> 30%,> 30%,< 30%,> 30%,> 30%,> 30%,> 30%,O=C(Nc1ccc(Cl)cc1)c1cc2ccccc2n1CCc1ccncc1
5.37,> 30%,> 30%,> 30%,5.98,> 30%,6.10,> 30%,> 30%,> 30%,> 30%,> 30%,> 30%,< 30%,> 30%,> 30%,> 30%,> 30%,O=C(Nc1ccc(OC(F)(F)F)cc1)c1nccn1CCc1ccncc1
< 5.00,> 30%,> 30%,> 30%,< 5.00,> 30%,< 5.00,> 30%,> 30%,> 30%,> 30%,> 30%,> 30%,< 30%,> 30%,> 30%,> 30%,> 30%,O=C(Nc1ccc(OC(F)(F)F)cc1)c1nc2ccccc2n1CCc1ccncc1
< 5.00,> 30%,> 30%,> 30%,< 5.00,> 30%,< 5.00,> 30%,> 30%,> 30%,> 30%,> 30%,> 30%,< 30%,> 30%,> 30%,> 30%,> 30%,O=C(Nc1ccc(OCc2ccccc2)cc1)c1ccnn1CCc1ccncc1
5.65,> 30%,> 30%,> 30%,5.87,> 30%,5.92,> 30%,> 30%,> 30%,> 30%,> 30%,> 30%,< 30%,> 30%,> 30%,> 30%,> 30%,Cc1cc(C(=O)Nc2ccc(OC(F)(F)F)cc2)n(CCc2ccncc2)n1
< 5.00,> 30%,> 30%,> 30%,< 5.00,> 30%,5.29,> 30%,> 30%,> 30%,> 30%,> 30%,> 30%,< 30%,> 30%,> 30%,> 30%,> 30%,O=C(Nc1ccc2[nH]ncc2c1)c1ccnn1CCc1ccncc1
< 5.00,> 30%,> 30%,> 30%,< 5.00,> 30%,< 5.00,> 30%,> 30%,> 30%,> 30%,> 30%,> 30%,< 30%,> 30%,> 30%,> 30%,> 30%,O=C(Nc1ccc(Cl)cc1)c1ccnn1CCc1cccnc1
